Assay [1] deals with T1, Recombinant ROCK2 (amino acids 5-554) (Homo sapiens, UniProt O75116).
T1 construct: ROCK2 (amino acids 5-554); by word order, ROCK2 from SignalChem
Kind of assay: ROCK inhibition assay, LANCE Ultra TR-FRET kinase assay (ROCK2). The class given is biochemical. Conditions: 4 μM ATP, 50 nM ULight-CREBtide substrate. As to the method:
(§1) Kinase IC50 was determined through an in vitro assay based on LANCE Ultra TR-FRET (Time-Resolved Fluorescence Resonance Energy Transfer) homogeneous technologies method (Perkin Elmer). Recombinant ROCK1 (amino acids 1-477) and ROCK2 (amino acids 5-554) proteins were purchased from Carna Biosciences and SignalChem. Compound activities were measured by Envision and IC50s were calculated. The assays were performed in white LUMITRAC™ 200 96 well half-area microplates from Greiner Bio-One. The kinase reaction buffer consisted of 50 mM HEPES pH 7.5, 1 mM EGTA, 10 mM MgCl2, 2 mM DTT and 0.01% Tween-20. Kinases were incubated with 50 nM (ULight-CREBtide) substrate in the presence of 1 (ROCK1) or 4 (ROCK2) μM ATP. The kinase reaction was carried out for 1 hour before addition of a stopping buffer to a final of 10 mM EDTA and 0.6 nM of LANCE Ultra Europium anti-phospho-CREB (Ser133) antibody (PerkinElmer TRF0200) in LANCE detection buffer. All assay incubations were performed at room temperature, and the microplates were sealed with polyester film during that time. The reaction was incubated for 1 hour, and the signal was read in Envision in TR-FRET mode (excitation at 320 nm and emission at 615/665 nm).
(§2) As used herein, a way to describe potency of inhibitory activity (nM) is a value of inhibitory activity at 50% (IC50).
A general note: TR-FRET usually uses a lanthanide donor and a delayed reading to cut background.

The target of assay [2] is T2, Recombinant ROCK1 (amino acids 1-477) (Homo sapiens, UniProt Q13464).
T2 construct: Recombinant ROCK1 (amino acids 1-477); by word order, ROCK1 from Carna Biosciences
T2 sequence (Q13464 1-477): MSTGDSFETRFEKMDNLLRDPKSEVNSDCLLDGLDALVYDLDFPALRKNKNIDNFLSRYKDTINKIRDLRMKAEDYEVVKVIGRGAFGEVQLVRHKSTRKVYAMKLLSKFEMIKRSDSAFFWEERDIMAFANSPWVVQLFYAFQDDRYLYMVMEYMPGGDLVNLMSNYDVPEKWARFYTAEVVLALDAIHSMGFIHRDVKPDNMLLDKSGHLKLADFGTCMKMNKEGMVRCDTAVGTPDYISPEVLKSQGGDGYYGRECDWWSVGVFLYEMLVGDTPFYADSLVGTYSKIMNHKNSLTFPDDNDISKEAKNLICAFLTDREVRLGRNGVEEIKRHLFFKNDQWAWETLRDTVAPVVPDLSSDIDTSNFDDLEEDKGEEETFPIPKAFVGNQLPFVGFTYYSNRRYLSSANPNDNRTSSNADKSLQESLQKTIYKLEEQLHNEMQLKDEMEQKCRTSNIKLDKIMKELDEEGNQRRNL
Kind of assay: ROCK inhibition assay, LANCE Ultra TR-FRET kinase assay (ROCK1). Format: biochemical. Particulars: 1 μM ATP, 50 nM ULight-CREBtide substrate. The protocol:
as §1, §2

The values that follow come from US12064426B2, “Selective inhibitors of ROCK1 and ROCK2 protein kinases and uses thereof” (GENOSCO Inc., priority 2021, dated 2024).

T1 sequence (O75116 5-554): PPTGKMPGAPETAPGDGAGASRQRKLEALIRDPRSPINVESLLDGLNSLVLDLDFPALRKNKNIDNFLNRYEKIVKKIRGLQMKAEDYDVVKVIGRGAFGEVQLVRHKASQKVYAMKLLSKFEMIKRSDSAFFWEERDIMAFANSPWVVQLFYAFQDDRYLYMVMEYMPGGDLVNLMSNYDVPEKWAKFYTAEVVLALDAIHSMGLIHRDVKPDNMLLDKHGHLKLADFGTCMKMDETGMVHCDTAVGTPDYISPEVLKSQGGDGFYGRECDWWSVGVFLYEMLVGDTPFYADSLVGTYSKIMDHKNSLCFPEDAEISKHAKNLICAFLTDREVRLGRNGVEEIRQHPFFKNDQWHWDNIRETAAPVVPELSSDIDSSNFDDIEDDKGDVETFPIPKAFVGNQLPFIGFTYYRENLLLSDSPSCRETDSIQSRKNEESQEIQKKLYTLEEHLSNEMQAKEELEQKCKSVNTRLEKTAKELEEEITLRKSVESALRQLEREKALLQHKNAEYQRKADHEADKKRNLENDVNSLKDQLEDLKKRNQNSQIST

`CNC(=O)c1cc(F)cc(Cn2ccc3cc(-c4cn[nH]c4C(F)F)ccc3c2=O)c1` [Compound 289]: the IC50 was below 10 nM in assay [1] and 11 to 100 nM in assay [2].
Regarding `Cc1nocc1-c1ccc2c(=O)n(Cc3cccc(C(=O)NCCN4CCOCC4)c3)cnc2c1` [Compound 420], the half-maximal inhibitory concentration (IC50) is below 10 nM in assay [1] and 11 to 100 nM in assay [2].
As to `[2H]C([2H])([2H])NC(=O)c1cc(F)cc(Cn2cnc3cc(-c4cn[nH]c4C(F)F)ccc3c2=O)c1` [Compound 402], the figures for the IC50 in assay [1] and in assay [2] were below 10 nM and 11 to 100 nM, respectively.
For `Cc1nocc1-c1ccc2c(=O)n(Cc3cc(F)cc(C(=O)Nc4nc5c(s4)CCN(C)C5)c3)ccc2c1` [Compound 158], in that order: below 10 nM and 11 to 100 nM.
Regarding `O=C(N[C@H]1C[C@@H](O)C1)c1cc(F)cc(Cn2ccc3cc(N4CCOCC4)ccc3c2=O)c1` [Compound 209], the IC50 in assay [1] is 100 to 500 nM; in assay [2] it was above 501 nM.
For `CNC(=O)c1cccc(Cn2cc(C(C)O)c3cc(-c4conc4C)ccc3c2=O)c1` (stereo not drawn) [Compound 537], in that order: below 10 nM and 11 to 100 nM.
Taken in the same sequence, the figures for `Cc1nocc1-c1cc2ccn(Cc3cc(F)cc(C(=O)NCC4CCOCC4)c3)c(=O)c2cn1` [Compound 266] were below 10 nM and 11 to 100 nM.
On to `O=C(NCC1COC1)c1cccc(Cn2cnc3cc(-c4cn[nH]c4C(F)(F)F)ccc3c2=O)c1` [Compound 380], for which the IC50 is below 10 nM in assay [1] and 11 to 100 nM in assay [2].
With `NCC(c1cccc(C(N)=O)c1)n1cnc2cc(-c3ccnc(N)c3)ccc2c1=O` (stereo not drawn) [Compound 506], the IC50 in assay [1] is 100 to 500 nM; in assay [2], above 501 nM.
For `Cc1nocc1-c1cc2ccn(Cc3cc(F)cc(C(=O)NCC4CCN(C)CC4)c3)c(=O)c2cn1` [Compound 265], in that order: below 10 nM and 11 to 100 nM.
For `CNC(=O)c1cccc([C@@H](C)n2cnc3cc(-c4cn[nH]c4Cl)ncc3c2=O)c1` [Compound 569], in that order: below 10 nM and below 10 nM.
Regarding `COc1cccc(C(C)n2ccc3cc(-c4ccnc(N)c4)ccc3c2=O)c1` (stereo not drawn) [Compound 26], the results for the IC50 in assay [1] and in assay [2] were 10 to 100 nM and 101 to 500 nM, respectively.
Taken in the same sequence, the figures for `O=C(Nc1cccc(Cn2ccc3cc(-c4c[nH]nc4C(F)F)ccc3c2=O)c1)c1cccnc1` [Compound 342] were 10 to 100 nM and 101 to 500 nM.
Taken in the same sequence, the figures for `C[C@H](c1cccc(C(=O)NC2CC2)c1)n1cnc2cc(-c3cn[nH]c3Br)ccc2c1=O` [Compound 515] were below 10 nM and 11 to 100 nM.
With `Cc1nocc1-c1ccc2c(=O)n(Cc3cccc(C(=O)NCCO)c3)ccc2c1` [Compound 102], the figures for the IC50 in assay [1] and in assay [2] were 10 to 100 nM and above 501 nM, respectively.
Taken in the same sequence, the figures for `CNC(=O)c1cccc(Cn2cc(C(C)O)c3cc(-c4c[nH]nc4C(F)(F)F)ccc3c2=O)c1` (stereo not drawn) [Compound 532, 3-((4-(1-hydroxyethyl)-1-oxo-6-(3-(trifluoromethyl)-1H-pyrazol-4-yl)isoquinolin-2(1H)-yl)methyl)-N-methylbenzamide] were below 10 nM and below 10 nM.
Taken in the same sequence, the figures for `CN1CCc2sc(NC(=O)c3cccc(Cn4ccc5cc(-c6ccnn6C)ccc5c4=O)c3)nc2C1` [Compound 121] were below 10 nM and 11 to 100 nM.
Taken in the same sequence, the figures for `Cc1nocc1-c1ccc2c(=O)n(Cc3cccc(C(=O)Nc4ccc5c(c4)CCOC5)c3)ccc2c1` [Compound 91] were below 10 nM and 11 to 100 nM.
Regarding `Cn1nccc1-c1ccc2c(c1)NCN([C@H](CO)c1cccc(Cl)c1)C2=O` [Compound 526], the IC50 was above 500 nM in assay [1] and above 501 nM in assay [2].
For `C[C@H](c1cccc(C(=O)NCC2CCOCC2)c1)n1cnc2cc(-c3cn[nH]c3C(F)F)ccc2c1=O` [Compound 462], in that order: below 10 nM and 11 to 100 nM.
As to `CN1CCC(CNC(=O)c2cccc(Cn3ccc4cc(-c5c[nH]nc5C(F)F)ccc4c3=O)c2)CC1` [Compound 56], the IC50 in assay [1] and in assay [2] was below 10 nM each time.
For `CC(=O)Nc1cccc(Cn2ccc3cc(-c4c[nH]nc4C(F)(F)F)ccc3c2=O)c1` [Compound 337], the figures for the IC50 in assay [1] and in assay [2] were 10 to 100 nM and 101 to 500 nM, respectively.
For `O=C(NCC1CCOCC1)c1cccc(Cn2ccc3cc(-c4c[nH]nc4C(F)F)ccc3c2=O)c1` [Compound 55], in that order: below 10 nM and 11 to 100 nM.
As for `Cc1nocc1-c1ccc2c(=O)n(Cc3cc(F)cc(NC(=O)c4ccccn4)c3)ccc2c1` [Compound 350], the values for the IC50 in assay [1] and in assay [2] were 10 to 100 nM and 101 to 500 nM, respectively.
As to `C[C@H](c1cccc(C(=O)N(C)C)c1)n1cnc2cc(-c3cn[nH]c3C(F)(F)F)ccc2c1=O` [Compound 442], the IC50 in assay [1] is above 500 nM; in assay [2] it was above 501 nM.
Taken in the same sequence, the figures for `CNC(=O)c1cccc([C@@H](C)n2cnc3cc(-c4cn[nH]c4C(F)F)ccc3c2=O)c1` [Compound 457] were below 10 nM and 11 to 100 nM.
For `Nc1cc(-c2ccc3c(=O)n(C(CO)c4cccc(Cl)c4)cnc3c2)ccn1` (stereo not drawn) [Compound 484], in that order: 10 to 100 nM and 101 to 500 nM.
For `Cc1nocc1-c1ccc2c(=O)n(Cc3cccc(C(=O)NCC4CCNCC4)c3)ccc2c1` [Compound 79], in that order: below 10 nM and 11 to 100 nM.
`CNC(=O)c1cc(Cl)cc(Cn2ccc3cc(-c4conc4C)ccc3c2=O)c1` [Compound 319]: the 50% inhibitory concentration (IC50) fell in the range of 10 to 100 nM in assay [1] and 101 to 500 nM in assay [2].
Taken in the same sequence, the figures for `CN1CC(CNC(=O)c2cccc(Cn3ccc4cc(-c5ccnn5C)ccc4c3=O)c2)C1` [Compound 113] were below 10 nM and 11 to 100 nM.
Taken in the same sequence, the figures for `O=C(NC1CC1)c1cc(F)cc(Cn2ccc3cc(-c4c[nH]nc4C(F)(F)F)ccc3c2=O)c1` [Compound 133] were 10 to 100 nM and 101 to 500 nM.
For `CNC(=O)c1cccc([C@@H](C)n2cnc3cc(-c4cn[nH]c4C(F)(F)F)ncc3c2=O)c1` [Compound 568, (R)—N-methyl-3-(1-(4-oxo-7-(5-(trifluoromethyl)-1H-pyrazol-4-yl)pyrido[4,3-d]pyrimidin-3(4H)-yl)ethyl)benzamide], in that order: below 10 nM and 11 to 100 nM.
Take `C[C@H](c1cccc(C(=O)NCC2CCOCC2)c1)n1cnc2cc(-c3cn[nH]c3C(F)(F)F)ccc2c1=O` [Compound 451]: the IC50 was below 10 nM in assay [1] and 11 to 100 nM in assay [2].
With `CNC(=O)c1cc(F)cc(Cn2ccc3cc(-c4ccoc4C)ncc3c2=O)c1` [Compound 247], the figures for the IC50 in assay [1] and in assay [2] were above 500 nM and above 501 nM, respectively.
Regarding `C[C@H](c1cccc(C(=O)NCc2ccc(F)nc2)c1)n1cnc2cc(-c3cn[nH]c3Br)ccc2c1=O` [Compound 516], the IC50 in assay [1] and in assay [2] was below 10 nM in each case.
As for `Cc1nocc1-c1ccc2c(=O)n(Cc3cccc(C(=O)NCC4CCN(C5COC5)CC4)c3)ccc2c1` [Compound 84], the results for the IC50 in assay [1] and in assay [2] were 10 to 100 nM and 101 to 500 nM, respectively.
`Cc1nocc1-c1ccc2c(=O)n(Cc3cccc(C(=O)Nc4ccc5c(c4)CCN(C)C5)c3)ccc2c1` [Compound 97]: the IC50 in assay [1] and in assay [2] was below 10 nM in each case.
Consider `NS(=O)(=O)c1ccc(NC(=O)c2cccc(Cn3ccc4cc(-c5c[nH]nc5C(F)(F)F)ccc4c3=O)c2)cc1` [Compound 42], for which the IC50 in assay [1] lay in the range of 10 to 100 nM; in assay [2], 101 to 500 nM.
With `O=C(NCC1CCOCC1)c1cc(F)cc(Cn2ccc3cc(-c4c[nH]nc4C(F)F)ccc3c2=O)c1` [Compound 60], the 50% inhibitory concentration (IC50) is below 10 nM in assay [1] and 11 to 100 nM in assay [2].
Turning to `CN1CCC(NC(=O)c2cccc(Cn3cnc4cc(-c5ccnc(N)c5)ccc4c3=O)c2)CC1` [Compound 436], the figures for the 50% inhibitory concentration (IC50) in assay [1] and in assay [2] were below 10 nM and 11 to 100 nM, respectively.
Taken in the same sequence, the figures for `CNC(=O)c1cccc(Cn2cc(CCN(C)C)c3cc(-c4c[nH]nc4N)ccc3c2=O)c1` [Compound 567] were below 10 nM and 11 to 100 nM.
For `C[C@H](c1cccc(C(=O)NCCO)c1)n1cnc2cc(-c3cn[nH]c3C(F)(F)F)ccc2c1=O` [Compound 453], in that order: 10 to 100 nM and 11 to 100 nM.
`CNC(=O)c1cccc(C(C)n2cnc3cc(-c4cn[nH]c4Cl)ccc3c2=O)c1` (stereo not drawn) [Compound 406]: the IC50 is below 10 nM in assay [1] and 11 to 100 nM in assay [2].
As for `O=c1c2ccc(-c3cn[nH]c3)cc2ccn1Cc1cccc(O)c1` [Compound 3, 2-(3-hydroxybenzyl)-6-(1H-pyrazol-4-yl)isoquinolin-1(2H)-one], the 50% inhibitory concentration (IC50) in assay [1] is 10 to 100 nM; in assay [2] it was 101 to 500 nM.
For `Cn1nccc1-c1ccc2c(=O)n(Cc3cccc(C(=O)Nc4ccc5c(c4)CNCC5)c3)ccc2c1` [Compound 125], the IC50 in assay [1] and in assay [2] was below 10 nM each time.

For orientation: IC50 means the point on the concentration scale where inhibition reaches its midpoint.
